Tested on: Melanoderm cultures
Test: Solvable melanin assay on Melanoderm cultures (3-D skin model)
Type: cell-based
Conditions: for OD = 490 nm (melanin content, Solvable melanin assay): Melanoderm cultures fed every other day for 2 weeks, DMSO control 1.292, untreated 1.259
Method: This experiment was carried out using Melanoderm cultures. Luminescence was measured using a chromameter to assay the degree of melanization of a 3-D skin model.
Method for Melanoderm Cultures
Melanoderm cultures were obtained from MatTek Corporation, Ashland, Mass. The Melanoderm was maintained according to the manufacturer's instructions. The basal media used for the maintenance of the Melanoderm cultures was DMEM supplemented with unspecified quantities of Epidermal growth factor, Insulin, Hydrocortisone, and proprietary epidermal differentiation compounds, in addition to anti-fungal and antibiotics.
For the long term maintenance of the Melanoderms, the basal media was supplemented with both bFGF and a-MSH, compounds which are stimulators of melanocyte growth and melanogenesis. The cultures were fed every other day for a total of 2 weeks—fresh active preparations, prepared in DMSO or culture media, were also applied to the Melanoderms when feeding was performed. Each treatment condition was done in duplicate and digital photographs were taken of the Melanoderm cultures to assess overall pigmentation. As well, microscopic images of the Melanoderms were done to assess the cell viability of the keratinocytes and melanocytes. For further evidence that the treatments were/not cytotoxic, an LDH assay (Promega, Madison, Wis.) was performed on the supernatants from 24 hour post-treatment cultures.
To prepare tissues for assay:
After treatment, tissues are usually frozen until completion of the experiment. Thaw tissues, a few at a time and place in D-PBS to remove excess phenol red from the culture medium and residual test article. Remove a single tissue from the insert. Blot dry and place in 1.7 ml. microfuge tube. Repeat for all samples. Add 250 ul Solvable™ (Tissue and Gel Solubilizer 0.5 M—Packard BioScience Co. Catalogue No. 6NE9100 (NEF910)). Close the tube and make sure that the tissue is completely submerged. Incubate at 60° C. overnight along with standards. In the morning, vortex the samples. Sometimes thick tissues will require additional time to complete the solution process. To prepare standard: Dissolve Melanin (Sigma cat. M 8631) in Solvable at 1 mg/ml. The solution may be warmed gently for 15 minutes at 37° C. Store solution in dark. To prepare standard curve: Prepare dilutions from the standard containing 0 ug to 250 ug of melanin in a total of 250 ul Solvable. Incubate dilutions along with samples. To read assay: Cool samples and standards. Centrifuge at 13,000 rpm for 5 minutes to pellet. Fill microwell plate (C-96) with 200 ul each of samples and standards. There is some foaming of samples when pipetted. Blow gently across the samples to break bubbles prior to reading the plate. Read plate at […].

## CCC(=O)n1c(=O)sc2ccccc21 [3-propionylbenzothiazol-2-one]
125 uM
  OD = 490 nm (melanin content, Solvable melanin assay): 1.522
250 uM
  OD = 490 nm (melanin content, Solvable melanin assay): 1.509
375 uM
  OD = 490 nm (melanin content, Solvable melanin assay): 1.377
500 uM
  OD = 490 nm (melanin content, Solvable melanin assay): 0.889
750 uM
  OD = 490 nm (melanin content, Solvable melanin assay): 0.727
1000 uM
  OD = 490 nm (melanin content, Solvable melanin assay): 0.184
Conclusion from Table 5, Melanoderm cultures
  effect on melanin synthesis: reduce melanin synthesis
